{
  "source": "paper PMC4640066",
  "about": "(Nature Communications, 2015)",
  "target": "T1, γ-TuSC (Saccharomyces cerevisiae, UniProt P53378)",
  "T1 construct": "made in house; host or cells: HighFive insect cells",
  "T1 sequence (P53378 1-473)": "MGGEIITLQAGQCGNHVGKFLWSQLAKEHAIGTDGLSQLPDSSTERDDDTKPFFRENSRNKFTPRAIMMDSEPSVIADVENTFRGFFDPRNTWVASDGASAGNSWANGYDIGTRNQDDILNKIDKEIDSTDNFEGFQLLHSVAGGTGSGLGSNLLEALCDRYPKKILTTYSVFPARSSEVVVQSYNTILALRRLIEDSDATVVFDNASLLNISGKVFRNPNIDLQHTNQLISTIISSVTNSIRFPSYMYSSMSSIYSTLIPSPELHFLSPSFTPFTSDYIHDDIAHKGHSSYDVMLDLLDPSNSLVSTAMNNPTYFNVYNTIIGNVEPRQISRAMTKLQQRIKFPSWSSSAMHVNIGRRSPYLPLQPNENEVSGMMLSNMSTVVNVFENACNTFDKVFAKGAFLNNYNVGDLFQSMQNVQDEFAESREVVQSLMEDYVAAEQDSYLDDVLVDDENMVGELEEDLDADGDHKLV",
  "T1 sequence (P38863 1-823 partner)": "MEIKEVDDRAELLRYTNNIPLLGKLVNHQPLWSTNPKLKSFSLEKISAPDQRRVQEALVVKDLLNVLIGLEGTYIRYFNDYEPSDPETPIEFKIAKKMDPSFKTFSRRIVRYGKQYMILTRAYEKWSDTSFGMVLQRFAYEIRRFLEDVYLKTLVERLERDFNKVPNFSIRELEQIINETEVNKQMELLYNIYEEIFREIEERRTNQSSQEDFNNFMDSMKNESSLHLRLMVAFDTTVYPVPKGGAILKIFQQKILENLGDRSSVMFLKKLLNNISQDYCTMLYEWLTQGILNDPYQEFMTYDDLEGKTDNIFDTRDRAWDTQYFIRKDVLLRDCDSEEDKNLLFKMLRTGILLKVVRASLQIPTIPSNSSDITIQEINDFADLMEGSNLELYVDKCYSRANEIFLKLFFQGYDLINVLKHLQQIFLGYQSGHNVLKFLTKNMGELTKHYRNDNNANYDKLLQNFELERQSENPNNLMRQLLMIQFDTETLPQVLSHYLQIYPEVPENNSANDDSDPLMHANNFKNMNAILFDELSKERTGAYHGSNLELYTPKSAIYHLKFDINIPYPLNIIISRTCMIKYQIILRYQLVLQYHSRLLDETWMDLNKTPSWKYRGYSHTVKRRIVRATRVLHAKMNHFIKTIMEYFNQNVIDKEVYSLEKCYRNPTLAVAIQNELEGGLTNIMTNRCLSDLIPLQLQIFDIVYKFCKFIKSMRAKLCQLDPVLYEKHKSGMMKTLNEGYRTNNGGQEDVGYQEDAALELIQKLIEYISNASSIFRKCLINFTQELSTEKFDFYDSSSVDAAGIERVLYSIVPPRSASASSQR",
  "T1 sequence (P53540 1-846 partner)": "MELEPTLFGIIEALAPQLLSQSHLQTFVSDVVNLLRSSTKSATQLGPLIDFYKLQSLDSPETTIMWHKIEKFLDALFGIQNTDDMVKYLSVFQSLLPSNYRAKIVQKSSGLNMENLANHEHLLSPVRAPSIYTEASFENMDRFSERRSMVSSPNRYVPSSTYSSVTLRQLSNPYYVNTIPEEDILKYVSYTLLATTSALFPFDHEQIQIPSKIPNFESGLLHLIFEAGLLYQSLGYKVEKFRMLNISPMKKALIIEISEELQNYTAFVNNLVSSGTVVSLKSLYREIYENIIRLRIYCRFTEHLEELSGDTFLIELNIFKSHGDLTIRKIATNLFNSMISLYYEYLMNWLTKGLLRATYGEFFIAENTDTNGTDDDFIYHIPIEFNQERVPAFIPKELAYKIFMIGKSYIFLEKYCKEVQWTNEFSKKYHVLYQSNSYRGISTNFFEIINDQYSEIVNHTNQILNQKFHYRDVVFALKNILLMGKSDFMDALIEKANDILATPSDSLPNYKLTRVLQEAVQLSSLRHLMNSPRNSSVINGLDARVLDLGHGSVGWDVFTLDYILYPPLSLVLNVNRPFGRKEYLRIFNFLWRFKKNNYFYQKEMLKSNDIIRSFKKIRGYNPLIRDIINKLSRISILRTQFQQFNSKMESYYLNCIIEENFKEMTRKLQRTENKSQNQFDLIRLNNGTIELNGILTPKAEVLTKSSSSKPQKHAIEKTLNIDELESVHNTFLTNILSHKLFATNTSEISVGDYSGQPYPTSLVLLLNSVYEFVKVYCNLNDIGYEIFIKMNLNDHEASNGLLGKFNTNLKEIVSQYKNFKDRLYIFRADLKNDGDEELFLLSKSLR",
  "test": "γ-TuSC-stimulated MT polymerization in vitro",
  "format": "biochemical",
  "conditions": "same concentration as ineffective on glutamate, paclitaxel and Tau-induced MT formation",
  "protocol": "For glutamate-stimulated MT polymerization, 1 mg ml^−1 porcine brain α/β-tubulin was mixed with glutamate (final concentration 1 M) and GTP (final concentration 1 mM) in RB buffer on ice. For paclitaxel-stimulated MT polymerization, 1 mg ml^−1 porcine brain α/β-tubulin was mixed with paclitaxel (final concentration 10 μM) and GTP (final concentration 1 mM) in RB buffer on ice. For recombinant Tau protein-stimulated MT polymerization, 1 mg ml^−1 α/β-tubulin purified from porcine brain and Tau protein were mixed with GTP (final concentration 1 mM) in RB buffer on ice. For γ-TuSC-stimulated MT polymerization, γ-TuSC was mixed with GTP (final concentration 1 mM). One of the compounds and α/β-tubulin were then added. Samples were transferred into cuvettes. Tubulin polymerization was monitored using the absorbance at 350 nm at 37 °C using a thermostatic spectrophotometer (Beckman Coulter).",
  "data": [
    {"smiles": "COc1cc2c(=O)c(-c3cc(OC)c4c(c3OC)OCO4)coc2cc1OCc1ccccc1", "note": "[Gatastatin, O^7-demethylbenzyl AG1]", "values": [
      {"measurement": "Effect on γ-TuSC-stimulated MT polymerization", "result": "blocked γ-TuSC-stimulated MT polymerization"}
    ]}
  ]
}
